Test system: SARS-CoV pseudovirus entry in ACE2 overexpressing A549 human lung alveolar basal epithelium cells
Format: cell-based

Q: rhAAT was tested. Which SARS-CoV pseudovirus entry did it give?
A: inhibits viral entry of several viruses
